In one test the target is T1, human IL-17A (hIL-17A) (Homo sapiens, UniProt Q16552).
T1 construct: purchased Sino Biological Inc. 12047-H07B
T1 sequence (Q16552 24-155): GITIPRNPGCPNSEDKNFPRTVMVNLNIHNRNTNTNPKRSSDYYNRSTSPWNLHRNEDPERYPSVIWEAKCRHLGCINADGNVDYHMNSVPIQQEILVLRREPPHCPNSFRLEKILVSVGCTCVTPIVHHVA
Kind of test: IL-17A enzyme-linked immunosorbent assay (competitive ELISA, receptor-ligand binding). The protocol: The inhibition of receptor-ligand binding by human IL-17A (hIL-17A) inhibitors was detected by competitive ELISA. A 96-well plate was inoculated 0.2 μg/ml IL-17 (Sino Biological Inc. Cat #12047-H07B) for incubation at 37° C. for 30 min, 100 μL for per well. The 96-well plate was washed four times with phosphate buffered saline (PBS) containing Tween-20 (PBST, 0.05% Tween-20), 200 μL for per well each time. 200 μL of 5% skim milk were added into the 96-well plate for incubation on a shaker at 25° C. for 30 min. The 96-well plate was washed four times with PBST (0.05% Tween-20), and added with 89 μL of PBST and 1 μL of a compound to be measured (100×), in which a concentration the compound to be measured (100×) was 0.003 μM-30 μM. The mixture was mixed evenly and incubated at 25° C. for 10 min. The mixture was added with 10 μL of 16 nM IL-17R, followed by incubation at 25° C. for 30 min. After washing the 96-well plate 4 times, 100 μL of anti-Fc tag horseradish peroxidase (HRP) coupled antibody were added for incubation on a shaker at 25° C. for 30 min. After washing the 96-well plate 4 times, 100 μL of 3,3′,5,5′-tetramethylbenzidine (TMB) substrate solution were added to the 96-well plate for incubation away from light at 25° C. After addition of 20% HCl, an absorbance was measure by a microplate reader at 450 nm.
The compounds prepared according to the above method were assayed for human IL-17A inhibitory activity.

In another test the target is T2, hIL-17A (Homo sapiens, UniProt Q16552).
T2 construct: purchased R&D 317-ILB
T2 sequence (Q16552 20-155 limits assumed): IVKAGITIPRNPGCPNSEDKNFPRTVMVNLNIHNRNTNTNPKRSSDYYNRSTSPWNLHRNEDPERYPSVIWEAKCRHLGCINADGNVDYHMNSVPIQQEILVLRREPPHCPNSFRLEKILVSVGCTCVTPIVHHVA
Kind of test: Inhibition of hIL-17A-induced chemokine GROα/CXCL1 production in HT-29 cell. The test is classed as cell-based. The protocol:
Human colorectal adenocarcinoma cell HT-29 was inoculated to a 96-well plate (5×10^4 for per well), and incubated at 37° C. on an incubator overnight. A mixture of 30 ng/mL hIL-17A protein (R&D, #317-ILB) with gradient concentrations of IL-17A small molecule inhibitors or with 0.3 μg/mL positive control IL-17A antibody (R&D, #AF-317-NA) was incubated for 1 h at 37° C., and added into the 96-well plate to incubated with HT-29 at 37° C. for 48 h. A level of GROα in a cell culture supernatant was then detected using an ELISA kit for GROα (Cisbio, #62HCXC1peg).
Inhibitory effect of the compound prepared in Examples on hIL-17A-induced chemokine GROα/CXCL1 production in HT-29 cell was tested according to the methods of Experimental Examples 1 and 2. […] “-” indicated not tested. According to the results, the compounds provided herein have good human IL-17A inhibitory activity and can be effectively used in the treatment of diseases associated with abnormal hIL-17A activity.

Take `Cc1nonc1C(=O)N[C@H](C(=O)Nc1ccc(-c2c(C)n[nH]c2C)cc1)C1c2ccc(F)cc2CC12CC2` (some centres unmarked) [Compound 15]: the concentration for half-maximal inhibition (IC50) on human IL-17A (hIL-17A) was 0.048 µM; against hIL-17A, 0.071 µM.
On the same counts, the results for `Cc1n[nH]c(C)c1-c1ccc(NC(=O)[C@@H](NC(=O)c2ccnn2C)C2c3ccc(F)cc3CC23CC3)cc1` (some centres unmarked) [Compound 16] are 0.043 µM and 0.055 µM.
Regarding `Cc1nonc1C(=O)N[C@H](C(=O)Nc1ccc(-c2c(C)n[nH]c2C)cc1)C1c2c(F)cccc2CC12CC2` (some centres unmarked) [Compound 14], the IC50 on human IL-17A (hIL-17A) was determined as 0.059 µM; against hIL-17A, 0.206 µM.
In the case of `Cc1n[nH]c(C)c1-c1ccc(NC(=O)[C@@H](NC(=O)c2nocc2C(C)C)C2c3ccc(F)cc3OCC23CC3)cc1` (some centres unmarked) [Compound 35], the half-inhibitory concentration (IC50) at human IL-17A (hIL-17A) is 0.311 µM; against hIL-17A, 0.085 µM.
On the same counts, the results for `Cc1n[nH]c(C)c1-c1ccc(NC(=O)[C@@H](NC(=O)c2nonc2C2CC2)C2c3ccc(F)cc3OCC23CC3)cc1` (some centres unmarked) [Compound 94] are 0.572 µM and 0.695 µM.
For `Cc1nonc1C(=O)N[C@H](C(=O)Nc1ccc(-c2c(C)n[nH]c2C)cc1)C1c2cc(F)cc(F)c2OCC12CC2` (some centres unmarked) [Compound 69], in that order: 0.288 µM and 0.941 µM.
Regarding `Cc1n[nH]c(C)c1-c1ccc(NC(=O)[C@@H](NC(=O)c2ccnn2C)C2c3cc(F)ccc3OCC23CC3)cn1` (some centres unmarked) [Compound 22], the IC50 came to 0.085 µM on human IL-17A (hIL-17A) and 1.02 µM at hIL-17A.
On the same counts, the results for `Cc1n[nH]c(C)c1-c1ccc(NC(=O)[C@@H](NC(=O)c2nonc2C(C)C)C2c3cc(F)c(F)cc3OCC23CC3)cc1` (some centres unmarked) [Compound 45] are 0.125 µM and 0.05 µM.
`CCc1nonc1C(=O)N[C@H](C(=O)Nc1ccc(-c2c(C)n[nH]c2C)cc1)C1c2c(F)cc(F)cc2OCC12CC2` (some centres unmarked) [Compound 53] yielded an IC50 at human IL-17A (hIL-17A) of 0.554 µM.
Regarding `Cc1n[nH]c(C)c1-c1ccc(NC(=O)[C@@H](NC(=O)c2conc2C2CC2)C2c3cc(F)c(F)cc3OCC23CC3)cc1` (some centres unmarked) [Compound 98], at human IL-17A (hIL-17A), the IC50 was 0.222 µM.
Consider `CCc1nonc1C(=O)N[C@H](C(=O)Nc1ccc(-c2c(C)n[nH]c2C)cc1)C1c2cc(F)ccc2OCC12CC2` (some centres unmarked) [Compound 25], for which the 50% inhibitory concentration (IC50) amounted to 0.056 µM on human IL-17A (hIL-17A) and 0.194 µM against hIL-17A.
For `Cc1nonc1C(=O)N[C@H](C(=O)Nc1ccc(-c2c(C)n[nH]c2C)nc1)C1c2cc(F)ccc2OCC12CC2` (some centres unmarked) [Compound 19], in that order: 0.19 µM and 2.05 µM.
As for `Cc1n[nH]c(C)c1-c1ccc(NC(=O)[C@@H](NC(=O)OC2CC2)C2c3cc(F)c(F)cc3OCC23CC3)cc1` (some centres unmarked) [Compound 106], the results for the IC50 on human IL-17A (hIL-17A) and on hIL-17A were 0.066 µM and 0.119 µM, respectively.
On the same counts, the results for `Cc1n[nH]c(C)c1-c1ccc(NC(=O)[C@@H](NC(=O)c2nonc2C(C)C)C2c3cc(F)cc(F)c3OCC23CC3)cc1` (some centres unmarked) [Compound 74] are 0.413 µM and 0.609 µM.
Regarding `Cc1n[nH]c(C)c1-c1ccc(NC(=O)[C@@H](NC(=O)c2nonc2C(C)C)C2c3ccc(F)cc3OCC23CC3)cc1` (some centres unmarked) [Compound 28], the results for the IC50 on human IL-17A (hIL-17A) and at hIL-17A were 0.11 µM and 0.083 µM, respectively.
As for `Cc1n[nH]c(C)c1-c1ccc(NC(=O)[C@@H](NC(=O)c2ccnn2C(C)C)C2c3c(F)cc(F)cc3OCC23CC3)cc1` (some centres unmarked) [Compound 54], the concentration for half-maximal inhibition (IC50) on human IL-17A (hIL-17A) was 0.136 µM.
On to `Cc1n[nH]c(C)c1-c1ccc(NC(=O)[C@@H](NC(=O)c2conc2C2CC2)C2c3cc(F)c(F)cc3OCC23CC3)cn1` (some centres unmarked) [Compound 97], for which the results for the IC50 on human IL-17A (hIL-17A) and on hIL-17A were 0.165 µM and 0.221 µM, respectively.
On the same counts, the results for `Cc1n[nH]c(C)c1-c1ccc(NC(=O)[C@@H](NC(=O)c2nonc2C(C)C)C2c3ccc(F)c(F)c3OCC23CC3)cn1` (some centres unmarked) [Compound 63] are 0.156 µM and 0.605 µM.
For `Cc1n[nH]c(C)c1-c1ncc(NC(=O)[C@@H](NC(=O)c2conc2C2CC2)C2c3ccc(F)cc3OCC23CC3)cc1F` (some centres unmarked) [Compound 100], in that order: 0.189 µM and 0.563 µM.
`Cc1n[nH]c(C)c1-c1ccc(NC(=O)[C@@H](NC(=O)c2nonc2C(C)C)C2c3cc(F)cc(F)c3OCC23CC3)cn1` (some centres unmarked) [Compound 73]: the IC50 on human IL-17A (hIL-17A) worked out at 0.294 µM; against hIL-17A, 0.795 µM.
For `Cc1n[nH]c(C)c1-c1ccc(NC(=O)[C@@H](NC(=O)c2ccnn2C)C2c3c(F)cccc3CC23CC3)cc1` (some centres unmarked) [Compound 13], in that order: 0.031 µM and 0.391 µM.
For `CCc1nonc1C(=O)N[C@H](C(=O)Nc1ccc(-c2c(C)n[nH]c2C)nc1)C1c2cc(F)ccc2OCC12CC2` (some centres unmarked) [Compound 23], in that order: 0.098 µM and 1.05 µM.
On the same counts, the results for `Cc1n[nH]c(C)c1-c1ccc(NC(=O)[C@@H](NC(=O)c2ccnn2C(C)C)C2c3cc(F)c(F)cc3OCC23CC3)cn1` (some centres unmarked) [Compound 62] are 0.151 µM and 0.177 µM.
With `Cc1n[nH]c(C)c1-c1ncc(NC(=O)[C@@H](NC(=O)c2ccnn2C(C)C)C2c3cc(F)cc(F)c3OCC23CC3)cc1F` (some centres unmarked) [Compound 72], the IC50 at human IL-17A (hIL-17A) was 0.343 µM; on hIL-17A, 1.81 µM.
`Cc1n[nH]c(C)c1-c1ccc(NC(=O)[C@@H](NC(=O)c2nonc2C(C)C)C2c3c(F)ccc(F)c3OCC23CC3)cc1` (some centres unmarked) [Compound 82] gave an IC50 on human IL-17A (hIL-17A) of 2.03 µM.
`Cc1n[nH]c(C)c1-c1ncc(NC(=O)[C@@H](NC(=O)c2nonc2C(C)C)C2c3c(F)ccc(F)c3OCC23CC3)cc1F` (some centres unmarked) [Compound 84] gave a 50% inhibitory concentration (IC50) at human IL-17A (hIL-17A) of 9.81 µM.
As to `Cc1n[nH]c(C)c1-c1ncc(NC(=O)[C@@H](NC(=O)c2nonc2C2CC2)C2c3ccc(F)c(F)c3OCC23CC3)cc1F` (some centres unmarked) [Compound 86], the IC50 on human IL-17A (hIL-17A) turned out to be 0.179 µM; on hIL-17A, 0.718 µM.
For the molecule `Cc1n[nH]c(C)c1-c1ccc(NC(=O)[C@@H](NC(=O)c2ccnn2C)C2c3cc(F)ccc3CC23CC3)cc1` (some centres unmarked) [Compound 2], the values for the 50% inhibitory concentration (IC50) on human IL-17A (hIL-17A) and at hIL-17A were 0.041 µM and 0.196 µM, respectively.
On human IL-17A (hIL-17A), `Cn1nccc1C(=O)N[C@H](C(=O)Nc1ccc(N2CCOCC2)nc1)C1c2ccccc2CC12CC2` (some centres unmarked) [Compound 10] showed an IC50 of 0.098 µM.
Same read-out and setting: to `CCc1nonc1C(=O)N[C@H](C(=O)Nc1ccc(-c2c(C)n[nH]c2C)cc1)C1c2c(F)ccc(F)c2OCC12CC2` (some centres unmarked) [Compound 78] belongs 0.985 µM; to `Cc1nonc1C(=O)N[C@H](C(=O)Nc1ccc(-c2c(C)n[nH]c2C)cc1)C1c2c(F)ccc(F)c2OCC12CC2` (some centres unmarked) [Compound 81], 2.06 µM; to `Cc1n[nH]c(C)c1-c1ncc(NC(=O)[C@@H](NC(=O)c2ccnn2C(C)C)C2c3c(F)ccc(F)c3OCC23CC3)cc1F` (some centres unmarked) [Compound 83], 2.02 µM.
The same measure, in the same setting: to `COCCc1nocc1C(=O)N[C@H](C(=O)Nc1ccc(-c2c(C)n[nH]c2C)cc1)C1c2cc(F)c(F)cc2OCC12CC2` (some centres unmarked) [Compound 104] belongs 0.116 µM.
Same read-out and setting: the value for `Cc1nonc1C(=O)N[C@H](C(=O)Nc1ccc(-c2c(C)n[nH]c2C)cc1)C1c2c(F)cc(F)cc2OCC12CC2` (some centres unmarked) [Compound 52] was 0.402 µM.
At human IL-17A (hIL-17A), `Cc1n[nH]c(C)c1-c1ccc(NC(=O)[C@@H](NC(=O)c2nonc2C(C)C)C2c3c(F)ccc(F)c3OCC23CC3)cn1` (some centres unmarked) [Compound 79] yielded an IC50 of 32.5 µM.
At human IL-17A (hIL-17A), `Cc1n[nH]c(C)c1-c1ccc(NC(=O)[C@@H](NC(=O)c2nonc2C(C)C)C2c3c(F)cc(F)cc3OCC23CC3)cn1` (some centres unmarked) [Compound 66] had an IC50 of 7.13 µM.
At human IL-17A (hIL-17A), `COCCc1nocc1C(=O)N[C@H](C(=O)Nc1cnc(-c2c(C)n[nH]c2C)c(F)c1)C1c2cc(F)c(F)cc2OCC12CC2` (some centres unmarked) [Compound 88] registered an IC50 of 0.1 µM.
Still for that read-out and setting: to `Cc1n[nH]c(C)c1-c1ccc(NC(=O)[C@@H](NC(=O)c2c(C(C)C)no[n+]2[O-])C2c3c(F)cc(F)cc3OCC23CC3)cc1` (some centres unmarked) [Compound 61] belongs 0.339 µM.
As to `Cc1n[nH]c(C)c1-c1ccc(NC(=O)[C@@H](NC(=O)c2ccnn2C(C)C)C2c3c(F)ccc(F)c3OCC23CC3)cn1` (some centres unmarked) [Compound 75], the half-inhibitory concentration (IC50) at human IL-17A (hIL-17A) was found to be 5 µM.

Source of the values: patent publication US20230227437A1, “IMMUNOMODULATOR” (priority 2020, published 2023).
